Results: patent publication US12702689B2, “Anti-inflammatory compositions, and uses thereof” (P.L. THOMAS & CO., INC., priority 2022, dated 2026)

Legend:
[1] = tested on: ovalbumin-induced allergic airway inflammation (lung); test: Lung tissue histology and scoring in OVA allergic airway model; format: in vivo, BALB/cJ female mice; settings: OVA+AKBA mice, 100 mg/kg AKBA
Source text: (§1) Allergic airway phenotype was induced by using an ovalbumin (OVA, hen egg) sensitization and challenge model as previously described with modifications [Beigelman, A. et al. Azithromycin attenuates airway inflammation in a noninfectious mouse model of allergic asthma. Chest 136, 498-506 (2009)]. Briefly (FIG. 1), two groups of mice (OVA control and OVA+AKBA) were sensitized with intraperitoneal ovalbumin plus alum on days 0 and 7, challenged for 3 days (day 14 to day 17) via nebulized OVA at 1% in PBS for 30 mins, and harvested 48 hr after final challenge. Supplementation groups (OVA+AKBA) were given 100 mg/kg of water soluble AKBA (pH 7) (PLT Health Solutions, Morristown, NJ, US) in autoclaved mouse water, via gavage, every other day for 10 days and then every day for the remainder of the experiment (9 days). OVA control and naïve mouse continued to receive normal autoclaved mouse water. Mice were weighted at the beginning and end of the experiment. Experiments involving AKBA were conducted twice, with the first group containing 5 mice per group and the second containing 15 mice per group (5 per group for naive). […]
Lung sectioning and staining was performed by the UConn Health Research Histology Core (Farmington, CT, US). […] Sections from the left lung were evaluated in their entirety and representative were images taken. […]

[2] = Body weight change in OVA allergic airway model; format: in vivo, BALB/cJ female mice; settings: OVA+AKBA mice, 100 mg/kg AKBA by gavage, beginning to end of experiment; mean±SD
Source text: as §1, with “Eight-week-old BALB/cJ female mice were purchased from the Jackson Laboratory (Bar Harbor, ME, US) and housed in plastic cages with corncob bedding at the University of Connecticut Health (Farmington, CT.). Animal rooms maintained a 12-h light/dark cycle and were pathogen free. Mice were fed a 18% protein rodent diet (18.6% protein, 6.2% fat, 44.2% carbohydrate, 3.5% soluble fiber, 14.7% total fiber, 5.3% ash) purchased from Envigo (Indianapolis, IN, US) and supplied autoclaved water. Allergic” for “Allergic”, “water.” for “water. Mice were weighted at the beginning and end of the experiment. Experiments involving AKBA were conducted twice, with the first group containing 5 mice per group and the second containing 15 mice per group (5 per group for naive).”

CC(=O)O[C@@H]1CC[C@@]2(C)[C@@H](CC[C@]3(C)[C@@H]2C(=O)C=C2[C@@H]4[C@@H](C)[C@H](C)CC[C@]4(C)CC[C@]23C)[C@@]1(C)C(=O)O [AKBA, 3-O-acetyl-11-keto-b-boswellic acid]
histology score: inflammation and airway smooth muscle remodeling ([1]; score 0-3, blinded, p=0.1823 vs OVA control): 2.0±0.49
histology score: mucus production ([1]; score 0-3, p=0.0278 vs OVA control): 2.0±0.4
total average weight change, % of starting weight [2]: −2.32±4.19%
